Reference: patent US10407396B2, “Crystalline form of selexipag” (Apotex Inc., priority 2017, dated 2019)

What was measured:
[1] = drug substance in UPTRAVI, per AusPAR, cited from earlier work
[2] = PXRD study of crystal form stability on storage; format: physicochemical; conditions: sealed vial under nitrogen atmosphere, room temperature and ambient humidity
Description: Selexipag Form APO-I can be characterized by a PXRD diffractogram comprising, among other peaks, characteristic peaks, expressed in degrees 2θ (±0.2°), at 7.5°, 12.4° and 21.7°. Preferably, the PXRD diffractogram further comprises at least three peaks, expressed in degrees 2θ (±0.2°), selected from the group consisting of 9.4°, 11.6°, 14.1°, 15.1°, 16.7°, 17.2°, 18.3°, 19.9°, 22.3° and 23.6°. More preferably, the PXRD diffractogram further comprises peaks, expressed in degrees 2θ (±0.2°), at 9.4°, 11.6°, 14.1°, 15.1°, 16.7°, 17.2°, 18.3°, 19.9°, 22.3° and 23.6°. PXRD studies of samples of Selexipag Form APO-I maintained under a nitrogen atmosphere in a sealed vial have shown that this crystal form is stable following storage at room temperature and ambient humidity for at least 14 days. PXRD diffractograms were recorded on a Bruker D8 Discover powder X-ray diffractometer (Bruker-AXS, Karlsruhe, Germany). The generator was a Micro-focus X-ray source (IMSTube: Cu tube with 1.54184 Å) with a voltage of 50 kV and current of 1.00 mA, using a divergence slit of 0.3 mm and collimator of 0.3 mm. For each sample, one frame was collected using a still scan with a Pilatus 3R-100 kA detector at the distance of 154.72 mm from the sample. Raw data were evaluated using the program EVA (Bruker-AXS, Karlsruhe, Germany).

Row | crystal form stable following storage (PXRD) [2] | SMILES | Biopharmaceutics Classification System (BCS) class ([1]; Class II = high permeability but low solubility) | solubility behaviour [1]
1 |  | CC(C)N(CCCCOCC(=O)NS(C)(=O)=O)c1cnc(-c2ccccc2)c(-c2ccccc2)n1 [Form I, 2-{4-[N-(5,6-diphenylpyrazin-2-yl)-N-isopropylamino]butyloxy}-N-(methylsulfonyl)acetamide] | Class II | pH dependent solubility
2 | at least 14 days | CC(C)N(CCCCOCC(=O)NS(C)(=O)=O)c1cnc(-c2ccccc2)c(-c2ccccc2)n1 [Selexipag Form APO-I, 2-{4-[N-(5,6-diphenylpyrazin-2-yl)-N-isopropylamino]butyloxy}-N-(methylsulfonyl)acetamide] |  | 
